Reference: patent US20240000075A1, “FUNGICIDAL ARYL AMIDINES” (CORTEVA AGRISCIENCE LLC, priority 2020, published 2024)
Read-outs that look alike come from different tables or passages of the source.

Key:
Phakopsora pachyrhizi = experiment: Asian soybean rust, whole-plant fungicidal activity (PHAKPA); format: in vivo; conditions: read-out: % Disease Control Rating PHAKPA
How it was run: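 Ten-day-old 'Williams 82' soybean seedlings sprayed to run-off with compound in acetone/water (1:9, 0.011% Tween-20), air-dried, then inoculated; 24 h dark dew room at 100% RH, then growth room. Disease severity scored 0–100% on sprayed leaves; percent control relative to untreated plants.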

Rhynchosporium commune = experiment: Leaf blotch of barley, whole-plant fungicidal activity (RHYNSE); format: in vivo; conditions: 24 h, 1DP (1 day protectant), read-out: % Disease Control Rating RHYNSE
How it was run: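 Barley cv. 'Harrington' at full first-leaf emergence (7-10 seedlings per pot) was sprayed to run-off with compound in acetone plus nine volumes of water containing 110 ppm Triton X-100, air-dried, then inoculated with spore suspension. Plants spent two days in a dark dew room at 100% RH, then moved to greenhouse for disease development.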

Zymoseptoria tritici = experiment: Septoria leaf blotch of wheat, whole-plant fungicidal activity (SEPTTR); format: in vivo, Zymoseptoria tritici on wheat plants (variety 'Yuma'); conditions: read-out: % Disease Control Rating SEPTTR
How it was run: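 Compounds in acetone, diluted with nine volumes of water containing 110 ppm Triton X-100, were sprayed to run-off on 'Yuma' wheat seedlings at full first-leaf emergence. Spore inoculation was 3 days before (3DC, curative) or 1 day after (1DP, protectant) treatment, then 3 days at 100% RH and greenhouse. First-leaf disease severity (0–100%) was scored relative to untreated plants as percent control.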

Puccinia triticina = experiment: Wheat brown rust, whole-plant fungicidal activity (PUCCRT); format: in vivo, Puccinia triticina on wheat plants (variety 'Yuma'); conditions: 24 h, 1DP (1 day protectant), read-out: % Disease Control Rating PUCCRT
How it was run: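 Wheat 'Yuma' seedlings at first-leaf stage sprayed to run-off with compound from acetone stock diluted in nine volumes water containing 110 ppm Triton X-100, then inoculated with Puccinia triticina spores. Held overnight in dark dew room at 100% RH, then greenhouse for disease development.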

Row | SMILES | pest or weed control at 200 ppm (Phakopsora pachyrhizi; 24 h, 1DP (1 day protectant)) [%] | pest or weed control at 200 ppm (Phakopsora pachyrhizi; 72 h, 3DC (3 day curative)) [%] | pest or weed control at 200 ppm (Rhynchosporium commune) [%] | pest or weed control at 200 ppm (Zymoseptoria tritici; 24 h, 1DP (1 day protectant)) [%] | pest or weed control at 200 ppm (Zymoseptoria tritici; 72 h, 3DC (3 day curative)) [%] | pest or weed control at 200 ppm (Puccinia triticina) [%] | melting point [°C]
1 | CCN(C)/C=N/c1cc(C)c(C(=O)Cc2ccccc2C)cc1C [Compound 1] | > 85 | > 85 | > 85 | < 20 | 20 to 50 | > 85 | 101 to 105
2 | CCN(C)/C=N/c1cc(C)c(C(=O)Cc2ccccc2)cc1C [Compound 2] | > 85 | > 85 | > 85 | 20 to 50 | < 20 | > 85 | 43 to 46
3 | CCN(C)/C=N/c1cc(C)c(C(=O)CC2CCCCC2)cc1C [Compound 3] | > 85 | > 85 | > 85 | > 85 | 20 to 50 | > 85 | 69 to 71
4 | CCN(C)/C=N/c1cc(C)c(C(=O)Cc2cccc(C(F)(F)F)c2)cc1C [Compound 5] | > 85 | > 85 | > 85 | 20 to 50 | < 20 | > 85 | 73 to 76
5 | CCN(C)/C=N/c1cc(C)c(C(=O)Cc2ccc(C)cc2F)cc1C [Compound 7] | > 85 | > 85 | > 85 | 20 to 50 | < 20 | > 85 | 102 to 105
6 | CCN(C)/C=N/c1cc(C)c(C(=O)Cc2ccc(OC(F)(F)F)cc2)cc1C [Compound 8] | > 85 | > 85 | > 85 | 50 to 85 | 20 to 50 | > 85 | 70 to 74
7 | CCN(C)/C=N/c1ccc(C(=O)Cc2cccc(C(F)(F)F)c2)c(C)c1C [Compound 10] | > 85 | > 85 | 20 to 50 | < 20 | < 20 | < 20 | 53 to 57
8 | CCN(C)/C=N/c1ccc(C(=O)CCC(F)(F)F)c(C)c1C [Compound 13] | 50 to 85 | > 85 | < 20 | < 20 | < 20 | < 20 | 52 to 56
9 | CCN(C)/C=N/c1ccc(C(=O)CCCC(F)(F)F)c(C)c1C [Compound 14] | > 85 | > 85 | < 20 | < 20 | < 20 | > 85 | 49 to 52
10 | CCN(C)/C=N/c1ccc(C(=O)CC2CCCCC2)c(C)c1C [Compound 15] | > 85 | > 85 | 50 to 85 | < 20 | < 20 | < 20 | 68 to 72
11 | Cc1cc(C(=O)CC2CCCC2)c(C)cc1/N=C/N1CCCCC1 [Compound 80] | > 85 | > 85 | > 85 | 50 to 85 | < 20 | > 85 | –
12 | Cc1cc(C(=O)Cc2c(F)cc(F)cc2F)c(C)cc1/N=C/N1CCCCC1 [Compound 81] | 50 to 85 | – | < 20 | < 20 | < 20 | > 85 | –
13 | Cc1cc(C(=O)CC2CCCC2)c(C)cc1/N=C/N(C)C(C)C [Compound 82] | > 85 | > 85 | > 85 | > 85 | < 20 | > 85 | –
14 | CCN(C)/C=N/c1cc(C)c(C(=O)Cc2ccccc2OC(F)F)cc1C [Compound 83] | > 85 | > 85 | > 85 | < 20 | < 20 | > 85 | –
15 | CCN(C)/C=N/c1cc(C)c(C(=O)Cc2cccc(OC(F)F)c2)cc1C [Compound 84] | > 85 | > 85 | > 85 | < 20 | < 20 | > 85 | –
16 | CCN(C)/C=N/c1cc(C)c(C(=O)Cc2ccc(OC(F)F)cc2)cc1C [Compound 85] | > 85 | > 85 | > 85 | > 85 | 20 to 50 | > 85 | –
17 | CCN(C)/C(C)=N/c1cc(C)c(C(=O)Cc2c(F)cc(F)cc2F)cc1C [Compound 86] | > 85 | > 85 | < 20 | < 20 | < 20 | > 85 | –
18 | CC/C(=N\c1cc(C)c(C(=O)Cc2c(F)cc(F)cc2F)cc1C)N(C)CC [Compound 87] | 50 to 85 | 20 to 50 | < 20 | < 20 | < 20 | > 85 | –
19 | Cc1cc(C(=O)Cc2c(F)cc(F)cc2F)c(C)cc1/N=C1\CCCCN1C [Compound 88] | 50 to 85 | > 85 | < 20 | < 20 | < 20 | 50 to 85 | –
20 | CCN(C)/C=N/c1cc(C)c(C(=O)Cc2c(F)cc(F)cc2F)cc1OC [Compound 89] | 50 to 85 | 20 to 50 | 20 to 50 | < 20 | < 20 | > 85 | –
21 | CCN(C)/C(C)=N/c1cc(C)c(C(=O)CC2CCCC2)cc1C [Compound 90] | > 85 | > 85 | 20 to 50 | < 20 | < 20 | > 85 | –
22 | CC/C(=N\c1cc(C)c(C(=O)CC2CCCC2)cc1C)N(C)CC [Compound 91] | > 85 | > 85 | < 20 | < 20 | < 20 | > 85 | –
23 | Cc1cc(C(=O)CC2CCCC2)c(C)cc1/N=C1\CCCCN1C [Compound 92] | 50 to 85 | 50 to 85 | 20 to 50 | < 20 | < 20 | > 85 | –
24 | CCN(C)/C(S)=N/c1cc(C)c(C(=O)Cc2c(F)cc(F)cc2F)cc1C [Compound 93] | > 85 | > 85 | > 85 | 50 to 85 | < 20 | > 85 | –
25 | CCN(C)/C(S)=N/c1cc(C)c(C(=O)CC2CCCC2)cc1C [Compound 94] | > 85 | > 85 | > 85 | > 85 | < 20 | > 85 | –
